Measurements taken from BindingDB's records for doi:10.1016/j.bmcl.2016.06.045 (China Pharmaceutical University, 2016).

Assay: Inhibition of PARP1 in human A549 cells assessed as potentiation of TMZ-mediated cytotoxicity by measuring TMZ IC50 for growth inhibition at 0.5 uM by SRB assay (Rvb TMZ IC50 = 295 uM)

| SMILES | IC50 [µM] |
| --- | --- |
| C[C@]1(c2nc3c(C(N)=O)c(F)ccc3[nH]2)CCCN1 | 338 |
| NC(=O)c1c(F)ccc2[nH]c(-c3ccc(N4CCOCC4)cc3)nc12 | 130 |
| CCCN1CCC(c2nc3c(C(N)=O)c(F)ccc3[nH]2)CC1 | 152 |
| NC(=O)c1c(F)ccc2[nH]c(-c3ccc(N4CCNCC4)cc3)nc12 | 188 |
| CN1CCC[C@@]1(C)c1nc2c(C(N)=O)c(F)ccc2[nH]1 | 310 |
| NC(=O)c1c(F)ccc2[nH]c(C3CCNCC3)nc12 | 354 |
